Earlier results on four compounds are cited in US20160206673A1, “Composition and Method for Improving Sexual Performance” (priority 2015, published 2016).

Molecules are shown by their SMILES.

Data set [1] relates to men with erectile dysfunction. The note with it: background evidence.
Data set [2] relates to men with erectile dysfunction. The note with it: oral medications.

Consider `C[C@]12CC[C@H](O)CC1=CC[C@@H]1[C@@H]2CC[C@]2(C)C(=O)CC[C@@H]12` [DHEA, dehydroepiandrosterone], for which the “effect on sexual function / erectile dysfunction” value in data set [1] was “increases libido in women and helps erectile dysfunction in men”. For the compound `N=C(N)NCCC[C@H](N)C(=O)O` [L-arginine], in data set [1], the “effect on sexual function / erectile dysfunction” value is on record as “improves erectile dysfunction”; the “side effects / safety” value was “nausea, cramps and diarrhea”. Regarding `COC(=O)[C@@H]1[C@H]2C[C@H]3c4[nH]c5ccccc5c4CCN3C[C@@H]2CC[C@@H]1O` [Yohimbine], in data set [1], the “effect on sexual function / erectile dysfunction” value is “can improve sexual dysfunction associated with a drug used to treat depression”; the “side effects / safety” value was “increased blood pressure, fast or irregular heartbeat, and anxiety”.

In the case of `CCCc1nn(C)c2c(=O)[nH]c(-c3cc(S(=O)(=O)N4CCN(C)CC4)ccc3OCC)nc12` [sildenafil], the “duration of erection helping effects” value in data set [2] is “up to eight”.
